Common to all, as to test: relative viability (nuclei count vs DMSO), 5 days (fraction); higher = more cells survive
Compound in experiment [1]: CC1(C)CNc2cc(NC(=O)c3cccnc3NCc3ccncc3)ccc21 [Motesanib] + COc1cccc2cc(-c3nc([C@H]4CC[C@H](C(=O)O)CC4)n4ncnc(N)c34)[nH]c12 [OSI-027] (partner 0.5 µM)
In short, it runs like this: (§1)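 One day after seeding in 1536-well plates, lung cancer cell lines were dosed by pin tool. Dosing was either single-drug or a fixed anchor-drug dose plus five library-drug doses (not always all listed) in √10 steps. After 5 days, nuclei were stained in one fix-and-stain step and counted on 4× images, and relative viability is the nuclei count of treated wells over that of vehicle wells, given as the median of duplicate plates.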

Compound in experiment [2]: CC1(C)CNc2cc(NC(=O)c3cccnc3NCc3ccncc3)ccc21 [Motesanib] + CC1(C)CCC(c2ccc(Cl)cc2)=C(CN2CCN(c3ccc(C(=O)NS(=O)(=O)c4ccc(N[C@H](CCN5CCOCC5)CSc5ccccc5)c(S(=O)(=O)C(F)(F)F)c4)cc3)CC2)C1 [Navitoclax] (partner 0.5 µM)
The essentials: as §1

Compound in experiment [3]: C[C@@]1(C(=O)Nc2ccc(F)nc2)CCCN1c1nc(Nc2cc(C3CC3)n[nH]2)c2cccn2n1 + C[C@]1(O)C[C@@H](c2nc(-c3ccc4ccc(-c5ccccc5)nc4c3)c3c(N)nccn32)C1 [Linsitinib] (partner 1 µM)
The essentials:
as §1

Compound in experiment [4]: C[C@@]1(C(=O)Nc2ccc(F)nc2)CCCN1c1nc(Nc2cc(C3CC3)n[nH]2)c2cccn2n1 + Cc1cc(Nc2cc(N3CCN(C)CC3)nc(Sc3ccc(NC(=O)C4CC4)cc3)n2)n[nH]1 [Tozasertib] (partner 0.1 µM)
In short, it runs like this: as §1

In the case of UMC-11, the relative viability came to 0.461 in experiment [1] (first compound 0.01 µM); 0.466 in experiment [1] (first compound 0.03162 µM); 0.38 in experiment [1] (first compound 0.1 µM); 0.503 in experiment [1] (first compound 0.3162 µM); 0.51 in experiment [1] (first compound 1 µM); 0.341 in experiment [2] (first compound 0.01 µM). In addition, the relative viability in experiment [2] (first compound 0.03162 µM) amounted to 0.312; in experiment [2] (first compound 0.1 µM), 0.31; in experiment [2] (first compound 0.3162 µM) it was 0.302; in experiment [2] (first compound 1 µM), 0.318; in experiment [3] (first compound 0.04 µM) it was 1.08; in experiment [3] (first compound 0.1265 µM), 0.985. The relative viability in experiment [3] (first compound 0.4 µM) was 0.957; in experiment [3] (first compound 1.265 µM), 1.05; in experiment [4] (first compound 0.04 µM) it was 0.2; in experiment [4] (first compound 0.1265 µM) it was 0.203; in experiment [4] (first compound 0.4 µM), 0.204; in experiment [4] (first compound 1.265 µM), 0.184.

These data come from the supplement of paper PMC10307832.
